Measurements taken from ChEMBL document CHEMBL2163338, “Development of triazene prodrugs for ADEPT strategy: new insights into drug delivery system based on carboxypeptidase G2 activation” (Bioorg Med Chem Lett, 2012).

Legend:
[1] = Half life in phosphate buffered saline at pH 7.4; assay type: physicochemical
[2] = Protein binding in human plasma; assay type: ADME, cell-free; conditions: read-out: PPB (converted)
[3] = test system: Pseudomonas sp.; assay: Ratio of Kcat to Km for Pseudomonas sp. carboxypeptidase G2
[4] = test system: Pseudomonas sp.; assay: Activity of Pseudomonas sp. carboxypeptidase G2 assessed as half life of compound hydrolysis by UV spectrophotometric analysis
[5] = test system: Pseudomonas sp.; assay: Activity of Pseudomonas sp. carboxypeptidase G2 assessed as compound hydrolysis by Michaelis-Menten plot analysis
[6] = target: Albumin (Homo sapiens, UniProt P02768); assay: Binding affinity to human serum albumin by HPLC analysis; assay type: ADME; conditions: isolated protein
Chain of Albumin (P02768 whole entry): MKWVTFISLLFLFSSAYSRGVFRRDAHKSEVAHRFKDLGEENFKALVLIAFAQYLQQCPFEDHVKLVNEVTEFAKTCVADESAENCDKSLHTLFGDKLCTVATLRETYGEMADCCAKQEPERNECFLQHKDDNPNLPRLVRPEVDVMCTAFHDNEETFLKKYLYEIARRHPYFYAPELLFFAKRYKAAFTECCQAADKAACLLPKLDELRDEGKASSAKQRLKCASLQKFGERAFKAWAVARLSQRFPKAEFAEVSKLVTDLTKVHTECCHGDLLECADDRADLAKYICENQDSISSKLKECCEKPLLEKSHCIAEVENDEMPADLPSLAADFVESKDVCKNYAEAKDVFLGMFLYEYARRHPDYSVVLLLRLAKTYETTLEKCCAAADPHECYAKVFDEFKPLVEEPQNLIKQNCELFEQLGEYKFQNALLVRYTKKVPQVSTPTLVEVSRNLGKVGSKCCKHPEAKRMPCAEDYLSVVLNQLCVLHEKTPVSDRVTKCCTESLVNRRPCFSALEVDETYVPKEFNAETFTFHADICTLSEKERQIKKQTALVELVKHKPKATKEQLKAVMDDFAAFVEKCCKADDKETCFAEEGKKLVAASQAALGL

Compound | half-life [1] [h] | other results
O=C(O)CC[C@H](NC(=O)Nc1ccc(COC(=O)Nc2ccc(N(CCI)CCI)cc2N(CCI)CCI)cc1)C(=O)O | < 0.0667 | 
O=C(O)CC[C@H](NC(=O)c1ccc(N(CCCl)CCCl)cc1)C(=O)O |  | fraction unbound [2]: 0.08
CCOC(=O)c1ccc(/N=N/N(C)C(=O)N[C@@H](CCC(=O)O)C(=O)O)cc1 | 2.89 | kcat/Km [3]: 410000 M⁻¹ s⁻¹; T1/2 [4]: 5.7 min; Km [5]: 2.73 µM; Vmax [5]: 1.18 µM/min; kcat [5]: 1.11 s⁻¹
O=C(O)CC[C@H](NC(=O)Nc1ccc(COC(=O)Nc2ccc(N(CCBr)CCBr)cc2N(CCBr)CCBr)cc1)C(=O)O | < 0.0667 | 
CN(C(=O)OCc1ccc(NC(=O)N[C@@H](CCC(=O)O)C(=O)O)cc1)c1ccc(N(CCBr)CCBr)cc1 | < 0.0667 | 
Cc1ccc(/N=N/N(C)C(=O)N[C@@H](CCC(=O)O)C(=O)O)cc1 | 7.63 | 
CN(/N=N/c1ccc(Br)cc1)C(=O)N[C@@H](CCC(=O)O)C(=O)O | 3.66 | Activity [6]: Active
Cc1cc(NC(=O)Nc2ccc(N(CCCl)CCCl)cc2)c2ccccc2n1 | 16.5 | 
O=C(O)CC[C@H](NC(=O)Nc1ccc(N(CCCl)CCCl)c(F)c1)C(=O)O | < 0.283 | 
CN(C(=O)OCc1ccc(NC(=O)N[C@@H](CCC(=O)O)C(=O)O)cc1)c1ccc(N(CCCl)CCCl)cc1 |  | Km [5]: 6.1 µM
CCOC(=O)c1ccc(/N=N/N(C)C(=O)N[C@@H](CCC(=O)OC)C(=O)OC)cc1 | 102 | 
CN(/N=N/c1ccc(C#N)cc1)C(=O)N[C@@H](CCC(=O)O)C(=O)O | 2.17 | kcat/Km [3]: 260000 M⁻¹ s⁻¹; T1/2 [4]: 3.5 min; Km [5]: 17.7 µM; Vmax [5]: 4.94 µM/min; kcat [5]: 4.64 s⁻¹
O=C(O)CC[C@H](NC(=O)Nc1ccc(N(CCCl)CCCl)cc1)C(=O)O | 0.28 | Km [5]: 3 µM
O=C(O)CC[C@H](NC(=O)Nc1ccc(N(CCCl)CCCl)c(Cl)c1)C(=O)O | < 0.283 | 
CC(=O)c1ccc(/N=N/N(C)C(=O)N[C@@H](CCC(=O)O)C(=O)O)cc1 | 0.0433 | 
CN(C(=O)OCc1ccc(NC(=O)N[C@@H](CCC(=O)O)C(=O)O)cc1)c1ccc(N(CCI)CCI)cc1 | < 0.0667 | 
CN(/N=N/c1ccc(C(N)=O)cc1)C(=O)N[C@@H](CCC(=O)O)C(=O)O | 0.107 | 
